Data published in PubChem BioAssay (NCI).
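Briefly, cells in 96-well plates were exposed to five compound concentrations for 48 h, and endpoints were estimated by linear interpolation. Here, GI50 denotes the concentration required for 50% inhibition of growth. TGI is the concentration that stops growth completely.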

Columns and labels:
Test in all cases: NCI-60 cell line screen, 48 h
[1] = tested on: SK-MEL-5 melanoma
[2] = tested on: HCT-116 colon
[3] = tested on: DU-145 prostate
[4] = tested on: OVCAR-5 ovarian
[5] = tested on: IGROV1 ovarian
[6] = tested on: SF-539 CNS
[7] = tested on: RPMI-8226 leukemia
[8] = tested on: A549 NSCLC
[9] = tested on: 786-0 renal
[10] = tested on: CCRF-CEM leukemia
[11] = tested on: OVCAR-3 ovarian
[12] = tested on: PC-3 prostate
[13] = tested on: SK-OV-3 ovarian
[14] = tested on: NCI-H226 lung
[15] = tested on: KM12 colon
[16] = tested on: CAKI-1 renal
[17] = tested on: SN12C renal
[18] = tested on: SNB-75 CNS
[19] = tested on: HCC-2998 colon
[20] = tested on: HL-60(TB) leukemia
[21] = tested on: M14 melanoma
[22] = tested on: K-562 leukemia
[23] = tested on: T-47D breast
[24] = tested on: NCI-H23 lung
[25] = tested on: NCI-H460 lung
[26] = tested on: TK-10 renal
[27] = tested on: MCF7 breast
[28] = tested on: HS 578T breast
[29] = tested on: MOLT-4 leukemia
[30] = tested on: U251 CNS
[31] = tested on: HOP-62 NSCLC
[32] = tested on: HOP-92 NSCLC
[33] = tested on: SK-MEL-28 melanoma
[34] = tested on: MALME-3M melanoma
[35] = tested on: SNB-19 CNS
[36] = tested on: BT-549 breast
[37] = tested on: HT29 colon
[38] = tested on: A498 renal
[39] = tested on: LOX IMVI melanoma
[40] = tested on: COLO 205 colon
[41] = tested on: NCI-H522 lung
[42] = tested on: MDA-MB-468 breast
[43] = tested on: ACHN renal
[44] = tested on: OVCAR-4 ovarian
[45] = tested on: HCT-15 colon
[46] = tested on: SW-620 colon
[47] = tested on: RXF 393 renal
[48] = tested on: MDA-MB-231 breast
[49] = tested on: SK-MEL-2 melanoma
[50] = tested on: OVCAR-8 ovarian
[51] = tested on: NCI/ADR-RES ovarian
[52] = tested on: SF-268 CNS
[53] = tested on: UACC-62 melanoma
[54] = tested on: MDA-MB-435
[55] = tested on: SF-295 CNS
[56] = tested on: UACC-257 melanoma
[57] = tested on: UO-31 renal
[58] = tested on: EKVX NSCLC
[59] = tested on: SR leukemia

CC(C)NC(=O)c1cc(-c2ccc(NC(=O)Nc3ccc(N4CCN(C)CC4)c(C(F)(F)F)c3)cc2)nc2cccnc12
GI50 [1]: 2.07 µM | TGI [1]: 3.76 µM | GI50 [2]: 2.06 µM | TGI [2]: 3.92 µM | GI50 [3]: 2.18 µM | TGI [3]: 4.15 µM | GI50 [4]: 1.98 µM | TGI [4]: 3.81 µM | GI50 [5]: 1.74 µM | TGI [5]: 3.55 µM | GI50 [6]: 1.51 µM | TGI [6]: 3.06 µM | GI50 [7]: 2 µM | TGI [7]: 7.82 µM | GI50 [8]: 6.5 µM | TGI [8]: 12.8 µM | GI50 [9]: 1.65 µM | TGI [9]: 3.34 µM | GI50 [10]: 0.539 µM | TGI [10]: 3.82 µM | GI50 [11]: 1.91 µM | TGI [11]: 3.94 µM | GI50 [12]: 1.82 µM | TGI [12]: 4.81 µM | GI50 [13]: 4.85 µM | TGI [13]: 16.2 µM | GI50 [14]: 6.13 µM | TGI [14]: 14.8 µM | GI50 [15]: 2.43 µM | TGI [15]: 5.12 µM | GI50 [16]: 1.96 µM | TGI [16]: 3.74 µM | GI50 [17]: 1.81 µM | TGI [17]: 3.53 µM | GI50 [18]: 0.657 µM | TGI [18]: 4.94 µM | GI50 [19]: 2.09 µM | TGI [19]: 3.96 µM | GI50 [20]: 0.572 µM | TGI [20]: 3.18 µM | GI50 [21]: 2 µM | TGI [21]: 4.13 µM | GI50 [22]: 2.79 µM | TGI [22]: 33.4 µM | GI50 [23]: 1.71 µM | TGI [23]: 31 µM | GI50 [24]: 2.23 µM | TGI [24]: 4.44 µM | GI50 [25]: 2.11 µM | TGI [25]: 4.04 µM | GI50 [26]: 2.24 µM | TGI [26]: 4.18 µM | GI50 [27]: 0.397 µM | TGI [27]: 2.79 µM | GI50 [28]: 1.36 µM | TGI [28]: 7.5 µM | GI50 [29]: 1.05 µM | TGI [29]: 4.19 µM | GI50 [30]: 1.74 µM | TGI [30]: 3.55 µM | GI50 [31]: 2.24 µM | TGI [31]: 4.73 µM | GI50 [32]: 0.98 µM | TGI [32]: 2.94 µM | GI50 [33]: 1.98 µM | TGI [33]: 3.68 µM | GI50 [34]: 1.65 µM | TGI [34]: 3.32 µM | GI50 [35]: 2.09 µM | TGI [35]: 4.75 µM | GI50 [36]: 1.37 µM | TGI [36]: 6.31 µM | GI50 [37]: 1.95 µM | TGI [37]: 3.98 µM | GI50 [38]: 13.5 µM | TGI [38]: 19.3 µM | GI50 [39]: 1.95 µM | TGI [39]: 3.62 µM | GI50 [40]: 2.37 µM | TGI [40]: 5.56 µM | GI50 [41]: 2.01 µM | TGI [41]: 4.02 µM | GI50 [42]: 0.801 µM | TGI [42]: 2.29 µM | GI50 [43]: 2.03 µM | TGI [43]: 3.74 µM | GI50 [44]: 2.21 µM | TGI [44]: 5.18 µM | GI50 [45]: 2.1 µM | TGI [45]: 4.2 µM | GI50 [46]: 1.79 µM | TGI [46]: 3.74 µM | GI50 [47]: 1.07 µM | TGI [47]: 2.89 µM | GI50 [48]: 0.82 µM | TGI [48]: 2.03 µM | GI50 [49]: 2.72 µM | TGI [49]: 6.5 µM | GI50 [50]: 2.16 µM | TGI [50]: 4.81 µM | GI50 [51]: 3.29 µM | TGI [51]: 9.35 µM | GI50 [52]: 6.09 µM | TGI [52]: 16.8 µM | GI50 [53]: 2.11 µM | TGI [53]: 4.13 µM | GI50 [54]: 1.94 µM | TGI [54]: 3.88 µM | GI50 [55]: 1.83 µM | TGI [55]: 3.57 µM | GI50 [56]: 2.09 µM | TGI [56]: 4.2 µM | GI50 [57]: 1.76 µM | TGI [57]: 3.39 µM | GI50 [58]: 2.19 µM | TGI [58]: 4.3 µM | GI50 [59]: 2.29 µM | TGI [59]: 7.45 µM
